Assay results taken from article PMC4754833, “Rilpivirine analogs potently inhibit drug-resistant HIV-1 mutants” (Retrovirology, 2016).

Legend:
[1] = tested on: HIV-1 RT mutant M230L; assay: single round infection assay, M230L; format: cell-based; settings: for fold-change of IC50 of the mutant relative to WT: M230L vs WT
Description: (§1) The human osteosarcoma cell line, HOS, was obtained from Dr. Richard Schwartz (Michigan State University, East Lansing, MI) and grown in Dulbecco’s modified Eagle’s medium (Invitrogen, Carlsbad, CA) supplemented with 5 % (v/v) fetal bovine serum, 5 % newborn calf serum, and penicillin (50 units/ml) plus streptomycin (50 µg/ml; Quality Biological, Gaithersburg, MD). Virion production and single-round infectivity assays were used to determine antiviral activity (IC50 values) of the compounds as previously described.
(§2) pNLNgoMIVR-ΔEnv.LUC has been described previously. The RT open reading frame was removed from pNLNgoMIVR-ΔEnv.LUC (digestion with SpeI and SalI) and inserted between the SpeI and SalI sites of pBluescript II KS+. Using that construct as the wild-type template, we prepared the following HIV-1 RT mutants using the QuikChange II XL (Stratagene, La Jolla, CA) site-directed mutagenesis protocol kit: L100I, K103N, Y181C, Y188L, H221Y, K103N/Y181C, G190A, G190S, M230L, P236L, L100I/K103N, K103N/P225H, V106A/G190A/F227L, V106A, L234I, V106A/F227L, V106A/L234I, V106A/F227L/L234I, E40K, D67E, K101E, V111A, E138K, M184I, M184V, K101E/M184I, K101E/M184V, E138K/M184I, E138K/M184V, K101P, Y181I, and K101P/V179I. The following sense oligonucleotides were used with matching cognate antisense oligonucleotides (not shown) (Integrated DNA Technologies, Coralville, IA) in the mutagenesis: L100I, 5′-[…]-3′; L100I 2-103, 5′-[…]-3′; K103N, 5′-[…]-3′; Y181C, 5′-[…]-3′; Y188L, 5′-[…]-3′; H221Y, 5′-[…]-3′; G190A, 5′-[…]-3′; G190S, 5′-[…]-3′; P225H, 5′-[…]-3′; F227, 5′-[…]-3′; M230L, 5′-[…]-3′; P236L, 5′-[…]-3′; V106A, 5′-[…]-3′; L234I, 5′-[…]-3′; E40K, 5′-[…]-3′; D67E, 5′-[…]-3′; K101E, 5′-[…]-3′; V111A, 5′-[…]-3′; E138K, 5′-[…]-3′; M184I, 5′-[…]-3′; M184V, 5′-[…]-3′; K101P, 5′-[…]-3′; Y181I, 5′-[…]-3′; K101P/V179I, 5′-[…]-3′. The double mutants K103N/Y181C, K103N/P225H, and L100I/K103N were made using the previously generated K103N mutant and the appropriate oligonucleotides to add the second mutation, Y181C, P225, and L100I respectively. The double mutants V106A/F227L and V106A/L234I were prepared using the previously generated V106A mutant and the appropriate oligonucleotides to add the second mutation, F227L and L234I, respectively. The double mutants K101E/M184I and K101E/M184V were constructed using the previously generated K101E mutant and the appropriate oligonucleotides to add the second mutation, M184I and M184V, respectively. The double mutants E138K/M184I and E138K/M184V were constructed using the previously generated E138K mutant and the appropriate oligonucleotides for the second mutation, M184I and M184V, respectively. The triple mutant V106A/F227L/L234I was made using the previously generated V106A/F227L double mutant and the appropriate oligonucleotides for the third mutation, L234I. The triple mutant V106A/G190A/F227L was constructed in a series of steps using the previously generated V106A mutant and the appropriate oligonucleotides for the second mutation, G190A, to generate the double mutant V106A/G190A, and then the triple mutant was made using double mutant V106A/G190A and oligonucleotides for the third mutation, F227L. The DNA sequence of each construct was verified by DNA sequence determination. The sequences encoding the mutant RTs were then subcloned into pNLNgoMIVR-ΔEnv.LUC (between the KpnI and SalI sites) to produce the mutant HIV-1 constructs. These DNA sequences were also checked independently by DNA sequence determination.
(§3) 10.1186/s12977-016-0244-2 The IC50 values (nM) of RPV and the RPV analogs were determined against the NNRTI resistant mutants were measured by using a single round infection assay, n = 4. The concentrations (nM) are measured by reductions in luciferase reporter activity followed by the standard deviations. […]

[2] = tested on: HIV-1 RT mutant V106A; assay: single round infection assay, V106A; format: cell-based
Description: as §1, §2, §3

[3] = tested on: HIV-1 RT mutant Y181C; parameters: method as in PMID 23217210; settings: previous study; cited from earlier work
[4] = tested on: HIV-1 RT mutant E40K; assay: single round infection assay, E40K; format: cell-based; settings: for fold-change of IC50 of the mutant relative to WT: E40K vs WT
Description: as §1, §2, §3

[5] = tested on: HIV-1 RT mutant V106A/G190A/F227L; assay: single round infection assay, V106A/G190A/F227L; format: cell-based; settings: for IC50: Human immunodeficiency virus 1; for fold-change of IC50 of the mutant relative to WT: V106A/G190A/F227L vs WT
Description: as §1, §2, §3

[6] = tested on: HIV-1 RT mutant K103N; parameters: method as in PMID 23217210; settings: previous study; cited from earlier work
[7] = tested on: HIV-1 RT mutant Y181I; assay: single round infection assay, Y181I; format: cell-based; settings: for IC50: Human immunodeficiency virus 1; for fold-change of IC50 of the mutant relative to WT: Y181I vs WT
Description: as §1, §2, §3

[8] = tested on: WT HIV-1; settings: previous study; cited from earlier work
[9] = tested on: HIV-1 RT mutant K101E/M184I; assay: single round infection assay, K101E/M184I; format: cell-based; settings: for fold-change of IC50 of the mutant relative to WT: K101E/M184I vs WT
Description: as §1, §2, §3

[10] = tested on: HIV-1 RT mutant P236L; assay: single round infection assay, P236L; format: cell-based; settings: for IC50: Human immunodeficiency virus 1
Description: as §1, §2, §3

[11] = tested on: HIV-1 RT mutant E138K; assay: single round infection assay, E138K; format: cell-based; settings: for fold-change of IC50 of the mutant relative to WT: E138K vs WT; for IC50: ± SD, n=4
Description: as §1, §2, §3

[12] = tested on: HIV-1 RT mutant E138K/M184I; assay: single round infection assay, E138K/M184I; format: cell-based; settings: for fold-change of IC50 of the mutant relative to WT: E138K/M184I vs WT
Description: as §1, §2, §3

[13] = tested on: HIV-1 RT mutant V106A/F227L/L234I; assay: single round infection assay, V106A/F227L/L234I; format: cell-based; settings: V106A/F227L/L234I vs WT
Description: as §1, §2, §3

[14] = Human immunodeficiency virus 1, E138K

| Structure (SMILES) | fold-change of IC50 of the mutant relative to WT [1] | IC50 [3] [nM] | fold-change of IC50 of the mutant relative to WT [4] | IC50 [5] [nM] | fold-change of IC50 of the mutant relative to WT [5] | IC50 [6] [nM] | IC50 [7] [nM] | fold-change of IC50 of the mutant relative to WT [7] | IC50 [8] [nM] | fold-change of IC50 of the mutant relative to WT [9] | IC50 [10] [nM] | fold-change of IC50 of the mutant relative to WT [11] | fold-change of IC50 of the mutant relative to WT [12] | fold-change of IC50 of the mutant relative to WT [13] | IC50 [11, 14] [nM] | other results |
| --- | --- | --- | --- | --- | --- | --- | --- | --- | --- | --- | --- | --- | --- | --- | --- | --- |
| Cc1cc(/C=C/C#N)cc(C)c1Nc1ccnc(Nc2ccc(C#N)cc2)n1 [RPV, rilpivirine] | 7 | < 7 | < 2 | 0.5 ± 0.02 | 2 | < 7 | 8.8 | 37 | < 7 | 3 | 0.2 | 4 | 5 |  |  | fold-change of IC50 of the mutant relative to WT ([2]; V106A vs WT): < 2 |
| Cc1cc(/C=C/C#N)cc(C)c1Nc1ncc2ncn(-c3ccc(C#N)cc3)c2n1 [compound 26] |  |  |  | 46.2 ± 11.1 | 6 |  | > 100 |  |  |  | 2.91 | 4 | 3 | 5 | 28.8 ± 1.1 | IC50 ([1]; Human immunodeficiency virus 1, M230L, ± SD, n=4, limit of detection 100 nM): > 100 nM; IC50 ([2]; Human immunodeficiency virus 1, V106A (selected by DOR), ± SD, n=4): 4.9 ± 1.3 nM; IC50 ([4]; Human immunodeficiency virus 1, E40K, ± SD, n=4): 4.2 ± 0.8 nM; IC50 ([9]; Human immunodeficiency virus 1, K101E/M184I, ± SD, n=4): 7.3 ± 1.8 nM; IC50 ([12]; Human immunodeficiency virus 1, E138K/M184I, ± SD, n=4): 24.5 ± 4.8 nM |
| Cc1cc(/C=C/C#N)cc(C)c1Nc1nc(Nc2ccc(C#N)cc2)ncc1[N+](=O)[O-] [compound 6] | 6 | < 7 | 2 | 1.1 ± 0.2 | 2 | < 7 | 55.3 | 110 | < 7 | < 2 | 0.23 ± 0.06 | 3 | 2 | 2 | < 2.5 | IC50 ([11]; E138K): 1.4 ± 0.3 nM |
| Cc1cc(/C=C/C#N)cc(C)c1Nc1nc(Nc2ccc(C#N)cc2)c2nc[nH]c2n1 [compound 13] | 8 | < 7 |  | 0.5 ± 0.2 | < 2 | < 7 | 1.2 | 5 | < 7 | < 2 | 0.31 ± 0.02 | 5 | 3 |  |  | fold-change of IC50 of the mutant relative to WT ([10]; P236L vs WT): < 2 |
